Legend:
HPK1 [1] = target: T1, HPK1 (Homo sapiens, UniProt Q92918); experiment: Western blot analysis of endogenous HPK1 level in Jurkat T cells; format: cell-based; settings: for reducing HPK1 protein levels: characterization of exemplary degraders (FIGS. 1-14)
T1 construct: endogenous in cells; host or cells: Jurkat T cells

Jurkat T cells = experiment: IL-2 production by Jurkat cells on CD3XCD28 stimulation (IL-2 ELISA); format: cell-based, human; settings: wider ranges of compound concentrations
Protocol: (§1) EXAMPLE 348. Several compounds according to the present invention employing the indolin-2-one HPK1 binding base, (which henceforth shall be referred to as the HC58 series, the HC65 series and the HC75 series) were assessed on their abilities to degrade HPK1 and produce an elevated IL-2 response profile upon stimulation by anti-CD3- and anti-CD28-mAb-mediated (CD3XCD28) stimulation (FIGS. 1-4). The elevated IL-2 response profile induced by TCR engagement after exposure to HC58 series of HPK1 degraders is shown in FIG. 1. […] A select sub-set of the lead HPK1 degraders from the HC58 series were further characterized to determine whether they could degrade primary mouse T cells.
EXAMPLE 351. […] Furthermore, compound HC58-78 and HC90-50 were also assessed for their abilities to enhance the CD3XCD28-induced IL-2 response by primary human PBMC (FIG. 10).
For the synthesis of intermediates and examples (1-89) below, HPLC spectra for all compounds were acquired using an Agilent 1200 Series system with DAD detector. […] Clone E6-1 cells is a preferred cellular platform for studying T cell activation in response to T cell receptor engagement because it produces the cytokine IL-2, which could be used as proxy readout for the level of T cell activation. […]

CD4+ T cells = experiment: CD28-independent IL-2 production by CD4+ T cells; format: cell-based; settings: fixed concentration of plate-bound antibody, varying concentrations of soluble anti-CD28 mAb (FIG. 6)
primary murine T cells = experiment: IL-2 production by primary murine T cells; format: cell-based, mouse
Protocol: as §1

[2] = tested on: CD4+ primary murine T cells; experiment: CD28-independent IL-2 production by CD4+ primary murine T cells (IL-2 ELISA); format: cell-based, mouse; settings: 500 nM, plate-bound anti-CD3 mAb 5 μg/mL, varying soluble anti-CD28 mAb
Protocol: EXAMPLE 34. I was observed that HPK1^−/− T cells, unlike their wild type counterparts, could readily produce IL-2 in response to CD3 □ crosslinking alone (data not shown). To assess whether HPK1 degraders could confer the same ability to produce IL-2 in a CD28-independent manner, CD4^+ primary murine T cells prepared as described in FIG. 5 were treated with 500 nM of HC58-75 HPK1 degrader or DMSO or Pomalidomide as controls. Their abilities to produce IL-2 in response a fixed concentration of plate-bound anti-CD3[…] mAb (5 μg/mL) in conjunction with varying soluble concentration of anti-CD28 mAb was then assessed.

HPK1 [3] = target: T2, HPK1 (Mus musculus, UniProt P70218); experiment: HPK1 degradation in primary mouse T cells; format: cell-based; settings: 300 nM
T2 construct: HPK1 degraders could effectively degrade endogenous HPK1 in murine T cells; endogenous in cells; host or cells: primary mouse T cells
T2 sequence (P70218 1-827): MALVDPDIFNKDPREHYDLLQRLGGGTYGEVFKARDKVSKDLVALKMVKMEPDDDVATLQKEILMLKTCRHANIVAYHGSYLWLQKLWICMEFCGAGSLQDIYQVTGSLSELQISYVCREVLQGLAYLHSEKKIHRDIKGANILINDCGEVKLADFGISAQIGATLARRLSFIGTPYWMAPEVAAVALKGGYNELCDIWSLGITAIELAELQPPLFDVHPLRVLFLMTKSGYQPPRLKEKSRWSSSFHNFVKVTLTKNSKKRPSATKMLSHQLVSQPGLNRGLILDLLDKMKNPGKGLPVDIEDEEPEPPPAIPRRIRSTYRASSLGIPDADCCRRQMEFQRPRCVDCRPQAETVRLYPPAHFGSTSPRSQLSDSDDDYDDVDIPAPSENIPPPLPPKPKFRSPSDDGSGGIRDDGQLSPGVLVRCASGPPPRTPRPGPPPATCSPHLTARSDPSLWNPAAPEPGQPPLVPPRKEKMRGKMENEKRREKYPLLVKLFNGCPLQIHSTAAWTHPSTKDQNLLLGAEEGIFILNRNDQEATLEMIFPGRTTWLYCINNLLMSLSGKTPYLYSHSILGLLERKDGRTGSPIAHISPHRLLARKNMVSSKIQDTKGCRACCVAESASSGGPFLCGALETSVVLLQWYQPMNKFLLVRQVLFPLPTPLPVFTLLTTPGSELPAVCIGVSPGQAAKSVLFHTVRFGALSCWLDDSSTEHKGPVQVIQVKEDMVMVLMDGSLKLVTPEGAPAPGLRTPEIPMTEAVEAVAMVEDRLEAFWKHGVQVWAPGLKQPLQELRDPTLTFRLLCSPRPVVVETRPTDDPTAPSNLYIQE
Protocol: as §1
EXAMPLE 353. HPK1 is expressed in all hematopoietic cells examined to date, including T cells, B cells, dendritic cells and neutrophils. Because the breath of therapeutic approaches might involve the use of Chimeric Antigen Receptor (CAR) T cells, dendritic cells, TCR transgenic T cells and Tumor Infiltrating Lymphocytes (TILs), selected HPK1 degraders were evaluated to determine whether they could degrade HPK1 effectively in some of these cell types. […] Potent degradation of HPK1 by HPK1 degraders was also observed in the human DC1 dendritic cells.

human PBMCs = experiment: Intracellular IFNγ and TNFα staining of human PBMC (FACS); format: cell-based; settings: in combination with blinatumomab
Source text: EXAMPLE 355. One of the mechanisms employed by PBMC to kill their target cells is by releasing IFNγ and TNFα production. These inflammatory cytokines are known have potent cytolytic effects on cancer cells. […] Mediated PBMC killing of the Raji cells is most evident at PBMC:Raji ratio of 5:1 (FIG. 13).
To determine the number of CD19^+ Raji cells killed by human PBMC that were activated by the Blinatumomab-mediated activation, we used CountBright cell counting beads to estimate the number of cells remained after 72 hours of co-culturing of PBMC and Raji. As for the intracellular staining of the TNFα and the IFNγ, the standard para-formaldehyde-based “fix and perm” procedure was used in order to quantitate the amount of intracellular cytokine trapped inside the cells by brefeldin A. FACS analysis of stained cells is performed by BD's LSR II FACS.

T1 sequence (Q92918 whole entry): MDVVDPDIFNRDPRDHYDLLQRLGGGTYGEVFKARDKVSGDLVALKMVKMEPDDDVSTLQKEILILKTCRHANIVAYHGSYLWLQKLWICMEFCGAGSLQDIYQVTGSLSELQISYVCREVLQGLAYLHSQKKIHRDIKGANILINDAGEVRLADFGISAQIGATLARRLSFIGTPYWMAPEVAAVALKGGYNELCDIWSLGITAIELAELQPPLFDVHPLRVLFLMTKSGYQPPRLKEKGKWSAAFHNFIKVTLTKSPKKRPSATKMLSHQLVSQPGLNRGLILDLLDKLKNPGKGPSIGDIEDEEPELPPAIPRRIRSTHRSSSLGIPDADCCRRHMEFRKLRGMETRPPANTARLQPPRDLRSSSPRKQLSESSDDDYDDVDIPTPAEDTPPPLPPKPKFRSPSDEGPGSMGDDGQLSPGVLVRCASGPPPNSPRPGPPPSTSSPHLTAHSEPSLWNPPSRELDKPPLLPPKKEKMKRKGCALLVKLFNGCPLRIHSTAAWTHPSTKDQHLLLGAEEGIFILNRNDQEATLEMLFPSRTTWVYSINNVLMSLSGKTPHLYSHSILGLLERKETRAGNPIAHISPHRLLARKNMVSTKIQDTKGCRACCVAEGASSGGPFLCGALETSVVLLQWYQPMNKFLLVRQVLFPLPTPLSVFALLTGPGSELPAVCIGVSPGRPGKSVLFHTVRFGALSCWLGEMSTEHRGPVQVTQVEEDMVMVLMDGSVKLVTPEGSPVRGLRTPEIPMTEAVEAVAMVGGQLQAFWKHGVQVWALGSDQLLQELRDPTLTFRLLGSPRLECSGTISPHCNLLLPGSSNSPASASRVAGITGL

Compound | reducing HPK1 protein levels (HPK1 [1]) | IL-2 response profile, rank within the HC90 series (Jurkat T cells) | further results
COc1cccc(F)c1-c1ncc2[nH]nc(-c3ccc(N4CCN(C(=O)CCCNc5cccc6c5C(=O)N(C5CCC(=O)NC5=O)C6=O)CC4)cc3)c2n1 (stereo not shown) [HC90-51, 2-(2,6-dioxopiperidin-3-yl)-4-((4-(4-(4-(5-(2-fluoro-6-methoxyphenyl)-1H-pyrazolo[4,3-d]pyrimidin-3-yl)phenyl)piperazin-1-yl)-4-oxobutyl)amino)isoindoline-1,3-dione] | especially effective in reducing HPK1 protein levels | top two compounds from the HC90 series | 
Cc1[nH]c(/C=C2\C(=O)Nc3ccc(F)cc32)c(C)c1C(=O)NCCCN1CCN(CC(=O)NCCCCCNc2cccc3c2C(=O)N(C2CCC(=O)NC2=O)C3=O)CC1 (stereo not shown) [HC58-75, (Z)—N-(3-(4-(2-((5-((2-(2,6-dioxopiperidin-3-yl)-1,3-dioxoisoindolin-4-yl)amino)pentyl)amino)-2-oxoethyl)piperazin-1-yl)propyl)-5-((5-fluoro-2-oxoindolin-3-ylidene)methyl)-2,4-dimethyl-1H-pyrrole-3-carboxamide] | especially effective in reducing HPK1 protein levels |  | endogenous level of HPK1 (HPK1 [1]; Jurkat T cells, multiple day post exposure (FIG. 3)): could reduce the endogenous level of HPK1; CD28-independent IL-2 production (CD4+ T cells): CD28-independent IL-2 production; IL-2 production compared with the DMSO-treated counterpart (primary murine T cells): produced more IL-2 than the DMSO-treated counterpart; IL-2 production without CD28 co-receptor engagement [2]: could produce IL-2 without the help of CD28 co-receptor engagement
Cc1[nH]c(/C=C2\C(=O)Nc3ccc(F)cc32)c(C)c1C(=O)NCCCN1CCN(C(=O)CCCCNc2cccc3c2C(=O)N(C2CCC(=O)NC2=O)C3=O)CC1 (stereo not shown) [HC58-38, (Z)—N-(3-(4-(5-((2-(2,6-dioxopiperidin-3-yl)-1,3-dioxoisoindolin-4-yl)amino)pentanoyl)piperazin-1-yl)propyl)-5-((5-fluoro-2-oxoindolin-3-ylidene)methyl)-2,4-dimethyl-1H-pyrrole-3-carboxamide] | especially effective in reducing HPK1 protein levels |  | 
Cc1[nH]c(/C=C2\C(=O)Nc3ccc(F)cc32)c(C)c1C(=O)NCCCN1CCN(CC(=O)NCCCCCCNc2cccc3c2C(=O)N(C2CCC(=O)NC2=O)C3=O)CC1 (stereo not shown) [HC58-76, (Z)—N-(3-(4-(2-((6-((2-(2,6-dioxopiperidin-3-yl)-1,3-dioxoisoindolin-4-yl)amino)hexyl)amino)-2-oxoethyl)piperazin-1-yl)propyl)-5-((5-fluoro-2-oxoindolin-3-ylidene)methyl)-2,4-dimethyl-1H-pyrrole-3-carboxamide] | especially effective in reducing HPK1 protein levels |  | degradation of HPK1 protein in primary T cells compared with Jurkat T cells (HPK1 [3]): could degrade more HPK1 protein in primary T cells than in Jurkat T cells
COc1cccc(F)c1-c1ncc2[nH]nc(-c3ccc(N4CCN(C(=O)CCNc5cccc6c5C(=O)N(C5CCC(=O)NC5=O)C6=O)CC4)cc3)c2n1 (stereo not shown) [HC90-50, 2-(2,6-dioxopiperidin-3-yl)-4-((3-(4-(4-(5-(2-fluoro-6-methoxyphenyl)-1H-pyrazolo[4,3-d]pyrimidin-3-yl)phenyl)piperazin-1-yl)-3-oxopropyl)amino)isoindoline-1,3-dione] | especially effective in reducing HPK1 protein levels | top two compounds from the HC90 series | percentage of human PBMCs that express high level of IFNγ and TNFα (human PBMCs): significantly increased
